Assay [1] deals with human Arginine Vasopressin Receptor 1a (AVPR1a) (Homo sapiens (Human), UniProt P37288). The experiment in a line: Vasopressin V1A receptor antagonist assay (AVP-evoked calcium, FLIPR, CHO-AVPR1a cells). In kind it is cell-based. The method in brief:
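CHO cells expressing human AVPR1a, Calcium-6 dye loaded 60-90 min, preincubated with compound 15 min at 37° C., then challenged with AVP at its daily-determined EC80. FLIPR fluorescence; 10-point 1:3 series from 3 μM, duplicates.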

Assay [2] addresses human Oxytocin Receptor (hOTR) (Homo sapiens (Human), UniProt P30559). The assay is described as follows: Oxytocin receptor antagonist assay (oxytocin-evoked calcium, FLIPR, CHEM-1-hOTR cells). As to conditions: read-out: OT IC50. In kind it is cell-based. The method in brief:
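Antagonist mode in CHEM-1-hOTR cells loaded with Calcium-6 dye; compounds (10-point, 1:3 series) preincubated 15 min at 37 °C, then oxytocin added at daily-determined EC80 in HBSS/20 mM HEPES with 0.1% BSA. Fluorescence (ex 470-495, em 515-575 nm) followed 3 min on FLIPR^TETRA; concentration-dependent reduction of oxytocin response measured.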

Read-outs that look alike come from different tables or passages of the source. Bounds are passed on as bounds.

Chain of human Oxytocin Receptor (hOTR) (P30559 whole entry): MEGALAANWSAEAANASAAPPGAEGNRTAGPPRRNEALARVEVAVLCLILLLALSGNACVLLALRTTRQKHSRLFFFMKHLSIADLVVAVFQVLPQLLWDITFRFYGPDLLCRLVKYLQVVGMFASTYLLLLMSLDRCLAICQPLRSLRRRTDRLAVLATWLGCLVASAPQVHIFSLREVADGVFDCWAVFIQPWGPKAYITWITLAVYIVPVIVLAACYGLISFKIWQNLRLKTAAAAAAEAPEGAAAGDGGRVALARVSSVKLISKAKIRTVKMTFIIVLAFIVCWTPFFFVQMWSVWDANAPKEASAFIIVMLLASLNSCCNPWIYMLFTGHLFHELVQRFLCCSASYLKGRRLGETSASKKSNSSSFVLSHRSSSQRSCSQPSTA
Chain of human Arginine Vasopressin Receptor 1a (AVPR1a) (P37288 whole entry): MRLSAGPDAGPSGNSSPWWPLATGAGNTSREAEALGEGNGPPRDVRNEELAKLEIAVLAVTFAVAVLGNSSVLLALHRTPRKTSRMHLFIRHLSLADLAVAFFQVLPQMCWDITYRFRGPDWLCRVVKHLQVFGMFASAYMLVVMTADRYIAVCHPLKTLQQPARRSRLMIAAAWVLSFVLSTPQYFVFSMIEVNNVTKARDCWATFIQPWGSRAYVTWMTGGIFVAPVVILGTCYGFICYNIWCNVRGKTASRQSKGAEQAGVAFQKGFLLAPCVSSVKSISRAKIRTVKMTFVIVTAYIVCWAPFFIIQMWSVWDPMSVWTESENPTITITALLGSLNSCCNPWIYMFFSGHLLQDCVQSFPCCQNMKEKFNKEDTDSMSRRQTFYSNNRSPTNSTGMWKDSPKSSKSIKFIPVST

As a reminder, the IC50 is the concentration at which inhibition is half-maximal. With `COC(=O)N1Cc2cc(Cl)ccc2-n2c(C3CC4(C3)CN(c3ccc(F)cn3)C4)nnc2C1C` (single isomer, unassigned) [142A], the 50% inhibitory concentration (IC50) in assay [1] (read-out: V1a IC50) is < 100 nM; in assay [2], > 1000 nM.

With `COC(=O)N1Cc2cc(Cl)ccc2-n2c(C3CC4(C3)CN(c3ccc(F)cn3)C4)nnc2C1C` (single isomer, unassigned) [Cpd 142B], the IC50 in assay [1] (read-out: V1a IC50) and in assay [2] was 500 to 1000 nM throughout. On to `CC(C)OC(=O)N1Cc2cc(Cl)ccc2-n2c(C3CC4(C3)CN(c3ccc(F)cn3)C4)nnc2C1C` (single isomer, unassigned) [Cpd 163A], for which the IC50 is < 100 nM in assay [1] (read-out: V1a IC50) and 100 to 500 nM in assay [2]. The matching figures for `COC(=O)N1Cc2cc(Cl)ccc2-n2c(C3CC4(C3)CN(c3cnccn3)C4)nnc2C1C` (single isomer, unassigned) [Cpd 165A]: < 100 nM and 500 to 1000 nM.

On to `COC(=O)N1Cc2cc(Cl)ccc2-n2c(C3CC4(C3)CN(c3ncccn3)C4)nnc2C1C` (single isomer, unassigned) [Cpd 166A], for which the IC50 in assay [1] (read-out: V1a IC50) was < 100 nM; in assay [2], > 1000 nM. As to `CC(C)OC(=O)N1Cc2cc(Cl)ccc2-n2c(C3CC4(C3)CN(c3ncccn3)C4)nnc2C1C` (single isomer, unassigned) [Cpd 167A], the IC50 in assay [1] (read-out: V1a IC50) is 100 to 500 nM; in assay [2], 500 to 1000 nM. `CCOC(=O)N1Cc2cc(Cl)ccc2-n2c(C3CC4(C3)CN(c3ncccn3)C4)nnc2C1C` (single isomer, unassigned) [Cpd 168A]: the IC50 in assay [1] (read-out: V1a IC50) was < 100 nM; in assay [2], 500 to 1000 nM.

On to `CCOC(=O)N1Cc2cc(Cl)ccc2-n2c(C3CC4(C3)CN(c3ccc(F)cn3)C4)nnc2C1C` (single isomer, unassigned) [Cpd 169A], for which the IC50 in assay [1] (read-out: V1a IC50) was < 100 nM; in assay [2] it was 100 to 500 nM. The matching figures for `COC(=O)N1Cc2cc(Cl)ccc2-n2c(C3CC4(C3)CN(c3ncc(F)cn3)C4)nnc2C1C` (single isomer, unassigned) [Cpd 170A]: < 100 nM and > 1000 nM.

For the molecule `CC1c2nnc(C3CC4(C3)CN(c3ncccn3)C4)n2-c2ccc(Cl)cc2CN1C(=O)OC1CC1` (single isomer, unassigned) [Cpd 171A], the values for the IC50 in assay [1] (read-out: V1a IC50) and in assay [2] were < 100 nM and > 1000 nM, respectively.

Take `CC1c2nnc(C3CC4(C3)CN(c3ncccn3)C4)n2-c2ccc(Cl)cc2CN1C(=O)OC1CC1` (single isomer, unassigned) [Cpd 171B]: the IC50 in assay [1] (read-out: V1a IC50) was 500 to 1000 nM; in assay [2], > 1000 nM.

For `CC1c2nnc(C3CC4(C3)CN(c3ccc(F)cn3)C4)n2-c2ccc(Cl)cc2CN1C(=O)C1(F)CC1` (single isomer, unassigned) [Cpd 174A], the IC50 in assay [1] (read-out: V1a IC50) is < 100 nM; in assay [2], 100 to 500 nM. For `CC1c2nnc(C3CC4(C3)CN(c3ccc(F)cn3)C4)n2-c2ccc(Cl)cc2CN1C(=O)C(C)(C)F` (single isomer, unassigned) [Cpd 178A] the same measures were < 100 nM and 100 to 500 nM. The matching figures for `CC1c2nnc(C3CC4(C3)CN(c3ccc(F)cn3)C4)n2-c2ccc(Cl)cc2CN1C` (single isomer, unassigned) [Cpd 179A]: < 100 nM and > 1000 nM. In the case of `CC1c2nnc(C3CC4(C3)CN(c3ccccn3)C4)n2-c2ccc(Cl)cc2CN1C(=O)C1(F)CC1` (single isomer, unassigned) [Cpd 181A], the IC50 in assay [1] (read-out: V1a IC50) is < 100 nM; in assay [2], 100 to 500 nM. The matching figures for `CC1c2nnc(C3CC4(C3)CN(c3ccc(F)cn3)C4)n2-c2ccc(Cl)cc2CN1C(=O)OC1CC1` (single isomer, unassigned) [Cpd 191A]: < 100 nM and 100 to 500 nM. The matching figures for `CC1c2nnc(C3CC4(C3)CN(c3ncc(F)cn3)C4)n2-c2ccc(Cl)cc2CN1C(=O)OC1CC1` (single isomer, unassigned) [Cpd 192A]: < 100 nM and > 1000 nM. With `CC(C)OC(=O)N1Cc2cc(Cl)ccc2-n2c(C3CC4(C3)CN(c3ncc(F)cn3)C4)nnc2C1C` (single isomer, unassigned) [Cpd 201A], the IC50 in assay [1] (read-out: V1a IC50) was < 100 nM. Take `CC1c2nnc(C3CC4(C3)CN(c3ncccn3)C4)n2-c2ccc(Cl)cc2CN1C(=O)OC(CF)CF` (single isomer, unassigned) [Cpd 202A]: the IC50 in assay [1] (read-out: V1a IC50) was < 100 nM; in assay [2] it was > 1000 nM. With `CC1c2nnc(C3CC4(C3)CN(c3ccc(F)cn3)C4)n2-c2ccc(Cl)cc2CN1C(=O)OC(CF)CF` (single isomer, unassigned) [Cpd 203A], the IC50 in assay [1] (read-out: V1a IC50) was < 100 nM; in assay [2], 100 to 500 nM. Take `CN1Cc2cc(Cl)ccc2-n2c(nnc2[C@H]2CC[C@H](Oc3ccccn3)CC2)C1` [balovaptan, reference compound]: the IC50 in assay [1] (in vitro antagonist assay, reference compounds, read-out: V1A IC50) is < 100 nM; in assay [2] (in vitro antagonist assay, reference compounds), > 1000 nM.

With `CN1Cc2cc(Cl)ccc2-n2c(nnc2C2CC3(C2)CN(c2ccc(F)cn2)C3)C1` [compound 1, 8-chloro-1-(2-(5-fluoropyridin-2-yl)-2-azaspiro[3.3]heptan-6-yl)-5-methyl-5,6-dihydro-4H-benzo[f][1,2,4]triazolo[4,3-a][1,4]diazepine], the 50% inhibitory concentration (IC50) was < 100 nM in assay [1] (read-out: V1a IC50) and > 1000 nM in assay [2]. Take `CN1Cc2cc(Cl)ccc2-n2c(nnc2C2CC3(C2)CN(c2ccccn2)C3)C1` [compound 2]: the IC50 in assay [1] (read-out: V1a IC50) was < 100 nM; in assay [2], > 1000 nM. As to `CN1Cc2cc(Cl)ccc2-n2c(nnc2C2CC3(C2)CN(c2cnccn2)C3)C1` [compound 3], the results for the IC50 in assay [1] (read-out: V1a IC50) and in assay [2] were < 100 nM and > 1000 nM, respectively. With `CN1Cc2cc(Cl)ccc2-n2c(nnc2C2CC3(C2)CN(c2ncccc2F)C3)C1` [compound 4], the IC50 in assay [1] (read-out: V1a IC50) is < 100 nM; in assay [2], > 1000 nM. In the case of `CN1Cc2cc(Cl)ccc2-n2c(nnc2C2CC3(C2)CN(c2cccc(F)n2)C3)C1` [compound 8], the figures for the IC50 in assay [1] (read-out: V1a IC50) and in assay [2] were < 100 nM and > 1000 nM, respectively.

Turning to `CN1Cc2cc(Cl)ccc2-n2c(nnc2C2CC3(C2)CN(C(=O)C2CC2)C3)C1` [compound 28], the results for the IC50 in assay [1] (read-out: V1a IC50) and in assay [2] were < 100 nM and > 1000 nM, respectively. For `COCCN1Cc2cc(Cl)ccc2-n2c(nnc2C2CC3(C2)CN(c2ccccn2)C3)C1` [compound 39, 8-chloro-5-(2-methoxyethyl)-1-(2-(pyridin-2-yl)-2-azaspiro[3.3]heptan-6-yl)-5,6-dihydro-4H-benzo[f][1,2,4]triazolo[4,3-a][1,4]diazepine] the same measures were < 100 nM and > 1000 nM. The matching figures for `Clc1ccc2c(c1)CN(C1CCC1)Cc1nnc(C3CC4(C3)CN(c3ccccn3)C4)n1-2` [compound 41]: < 100 nM and 500 to 1000 nM. For `Fc1ccc(N2CC3(CC(c4nnc5n4-c4ccc(Cl)cc4CN(C4CCC4)C5)C3)C2)nc1` [compound 42] the same measures were < 100 nM and 500 to 1000 nM. `CCN1Cc2cc(Cl)ccc2-n2c(nnc2C2CC3(C2)CN(c2ccccn2)C3)C1` [compound 45]: the concentration for half-maximal inhibition (IC50) in assay [1] (read-out: V1a IC50) is < 100 nM; in assay [2], > 1000 nM.

For the molecule `CCN1Cc2cc(Cl)ccc2-n2c(nnc2C2CC3(C2)CN(c2cnccn2)C3)C1` [compound 46], the IC50 in assay [1] (read-out: V1a IC50) was < 100 nM; in assay [2], > 1000 nM.

Turning to `CC(C)N1Cc2cc(Cl)ccc2-n2c(nnc2C2CC3(C2)CN(c2cnccn2)C3)C1` [compound 47], the IC50 in assay [1] (read-out: V1a IC50) was < 100 nM; in assay [2], > 1000 nM. The matching figures for `CC(C)N1Cc2cc(Cl)ccc2-n2c(nnc2C2CC3(C2)CN(c2ccccn2)C3)C1` [compound 48]: < 100 nM and > 1000 nM.

On to `CCN1Cc2cc(Cl)ccc2-n2c(nnc2C2CC3(C2)CN(c2ccc(F)cn2)C3)C1` [compound 49], for which the IC50 was < 100 nM in assay [1] (read-out: V1a IC50) and > 1000 nM in assay [2]. For `CC(C)N1Cc2cc(Cl)ccc2-n2c(nnc2C2CC3(C2)CN(c2ccc(F)cn2)C3)C1` [compound 50] the same measures were < 100 nM and > 1000 nM.

For `FC(F)CN1Cc2cc(Cl)ccc2-n2c(nnc2C2CC3(C2)CN(c2ccccn2)C3)C1` [compound 52], the IC50 is < 100 nM in assay [1] (read-out: V1a IC50) and 500 to 1000 nM in assay [2]. Take `CC(C)N1Cc2cc(Cl)ccc2-n2c(nnc2C2CC3(C2)CN(c2ncccc2F)C3)C1` [compound 54]: the IC50 in assay [1] (read-out: V1a IC50) is < 100 nM; in assay [2], > 1000 nM. For `Clc1ccc2c(c1)CN(C1CC1)Cc1nnc(C3CC4(C3)CN(c3ccccn3)C4)n1-2` [compound 56] the same measures were < 100 nM and 500 to 1000 nM.

For the molecule `Clc1ccc2c(c1)CN(C1COC1)Cc1nnc(C3CC4(C3)CN(c3ccccn3)C4)n1-2` [compound 57, 8-chloro-5-(oxetan-3-yl)-1-(2-(pyridin-2-yl)-2-azaspiro[3.3]heptan-6-yl)-5,6-dihydro-4H-benzo[f][1,2,4]triazolo[4,3-a][1,4]diazepine], the IC50 in assay [1] (read-out: V1a IC50) is < 100 nM; in assay [2], > 1000 nM. The matching figures for `CC(CF)N1Cc2cc(Cl)ccc2-n2c(nnc2C2CC3(C2)CN(c2ccccn2)C3)C1` (stereo not drawn) [compound 58]: < 100 nM and > 1000 nM. The matching figures for `FCCN1Cc2cc(Cl)ccc2-n2c(nnc2C2CC3(C2)CN(c2ccccn2)C3)C1` [compound 59]: < 100 nM and > 1000 nM. Turning to `COC(=O)N1Cc2cc(Cl)ccc2-n2c(nnc2C2CC3(C2)CN(c2ccc(F)cn2)C3)C1` [compound 61], the IC50 in assay [1] (read-out: V1a IC50) is < 100 nM; in assay [2] it was 500 to 1000 nM. For `CC(C)C(=O)N1Cc2cc(Cl)ccc2-n2c(nnc2C2CC3(C2)CN(c2ccc(F)cn2)C3)C1` [compound 63], the IC50 in assay [1] (read-out: V1a IC50) is < 100 nM; in assay [2], > 1000 nM.

The values are drawn from US11186577B2, “Vasopressin receptor antagonists and products and methods related thereto” (BlackThorn Therapeutics, Inc., priority 2017, dated 2021).
